Measurements taken from ChEMBL document CHEMBL1201862, “PubChem BioAssay data set” (2004).
Active and inactive are the calls of the source. Rule as the data show it, for most assays here: actives have a measured EC50 and inactives only a lower limit.

Columns and labels:
cells [1] = type: functional, cell-based
cells [2] = type: functional, cell-based; remark: listed apart in the source
[3] = luciferase reporter signal suppression in cells – H4 neuroglioma cells, luminescence, dose response (AID 1990); type: functional, cell-based
[4] = Luminescence Cell-Based Dose Response HTS to Identify Inhibitors of 5'UTR Stem-Loop Driven Prion Protein mRNA Translation in H4 Neuroglioblastoma Cells. [Related pubchem assays: 1827 (Project Summary), 1813 (Primary HTS)]; type: functional
[5] = alpha-synuclein stem-loop luciferase translation blockers – H4 neuroglioma cells, luminescence, confirmation (AID 1988); type: functional, cell-based
[6] = microbe, parasite or virus in culture; type: functional; settings: Mycobacterium tuberculosis
[7] = Luminescence Cell-Based Dose Retest to Confirm Inhibitors of Cancer Stem Cells. [Related pubchem assays (depositor defined):AID2717, AID2721]; type: functional; settings: Homo sapiens
H9c2 = experiment: cells; type: functional, cell-based; settings: Rattus norvegicus, H9c2, Myocardium;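 also: confirmatory concentration-response retest of ultra-high-throughput screening hits for modulation of myocardial damage; cell death induced by hydrogen peroxide oxidative stress; compound pretreatment for 60 min then peroxide exposure for 2 h; potency is for protecting the cells against peroxide damage rather than for killing them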
Large T antigen = Large T antigen (Simian virus 40, UniProt P03070); type: functional, Betapolyomavirus macacae;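 also: Confirmatory-stage PubChem screen for compounds that inhibit SV40 T antigen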
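For AC50 in this document: cells exposed to compound for roughly 70 hours or longer before luminescence read.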

Chain of Large T antigen (P03070 whole entry): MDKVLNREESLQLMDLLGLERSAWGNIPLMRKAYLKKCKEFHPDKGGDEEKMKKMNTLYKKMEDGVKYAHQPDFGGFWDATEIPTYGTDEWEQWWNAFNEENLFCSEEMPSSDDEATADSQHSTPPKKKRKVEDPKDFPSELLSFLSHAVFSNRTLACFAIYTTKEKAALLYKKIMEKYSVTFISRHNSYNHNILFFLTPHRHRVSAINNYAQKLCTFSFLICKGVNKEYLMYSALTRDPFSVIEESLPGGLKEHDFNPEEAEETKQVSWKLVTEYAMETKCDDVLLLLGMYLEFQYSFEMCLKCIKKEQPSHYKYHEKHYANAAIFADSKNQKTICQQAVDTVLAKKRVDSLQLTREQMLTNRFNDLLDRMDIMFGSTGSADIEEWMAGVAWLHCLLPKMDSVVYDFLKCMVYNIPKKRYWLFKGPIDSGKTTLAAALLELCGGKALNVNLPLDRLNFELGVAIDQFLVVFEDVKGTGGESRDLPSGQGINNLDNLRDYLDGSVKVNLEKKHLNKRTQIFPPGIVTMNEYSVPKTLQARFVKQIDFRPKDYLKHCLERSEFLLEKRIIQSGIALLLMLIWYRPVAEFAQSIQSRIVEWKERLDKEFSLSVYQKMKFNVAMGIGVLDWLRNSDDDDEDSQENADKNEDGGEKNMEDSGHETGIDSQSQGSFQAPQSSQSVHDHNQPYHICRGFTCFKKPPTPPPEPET

**Q.** With `CCCn1cc(NC(=O)c2cc(-c3ccccc3)on2)cn1` as the molecule, how does the EC50 (cells [1]) read?
**A.** Its EC50 is 143 µM (active).

**Q.** And the EC50 (cells [2])?
**A.** The EC50 was 2.49 µM (active).

**Q.** For `CC(C)c1nc(CNC(=O)CCc2nnc(-c3ccsc3)o2)cs1`, which EC50 (cells [1]) is on record?
**A.** The EC50 was > 350 µM (not active).

**Q.** And the EC50 (cells [2])?
**A.** The EC50 was > 350 µM (not active).

**Q.** With `CCOc1ccc(C(=O)NCC2CCCO2)cc1OCC` (configuration not stated) as the molecule, how does the EC50 (cells [1]) read?
**A.** The EC50 was > 350 µM (not active).

**Q.** And the EC50 (cells [2])?
**A.** The EC50 was > 350 µM (not active).

**Q.** With `COC(=O)CC1C(=O)NCCN1C(=O)CSc1nnc(Nc2ccc(OC)cc2)s1` (configuration not stated) as the molecule, how does the EC50 (cells [1]) read?
**A.** The EC50 was > 350 µM (not active).

**Q.** What about the EC50 (cells [2]) of the same molecule?
**A.** Its EC50 is > 350 µM (not active).

**Q.** With `COc1cccc(-c2cc(C(F)(F)F)n3nc(C(=O)N4CCC5(CC4)OCCO5)cc3n2)c1` as the molecule, how does the EC50 (cells [1]) read?
**A.** Its EC50 is > 350 µM (not active).

**Q.** And the EC50 (cells [2])?
**A.** Its EC50 is > 350 µM (not active).

**Q.** With `S=C(NN=C1CCN(Cc2ccccc2)CC1)NC1CCCCC1` as the molecule, how does the EC50 [3] read?
**A.** Its EC50 is > 120 µM (not active).

**Q.** What about the EC50 [4] of the same molecule?
**A.** Its EC50 is > 120 µM (not active).

**Q.** What about the EC50 [5] of the same molecule?
**A.** Its EC50 is > 120 µM (not active).

**Q.** And the CC50 [6]?
**A.** The CC50 was > 40 µM (active).

**Q.** What does the source list for `Cc1cc(C)cc(NC(=O)CSc2ccc(-c3ccccn3)nn2)c1`?
**A.** EC50 [3]: 11.7 µM (active); EC50 (cells [1]): > 350 µM (not active); EC50 [4]: 9.74 µM (active); EC50 [5]: 8.69 µM (active); EC50 (cells [2]): > 350 µM (not active); AC50 [7]: 4.57 µM (active); IC50 (H9c2): > 79 µM (inactive)

**Q.** With `Cc1ccc(C)c(-c2cc(C(=O)Nc3cccc(C(=O)O)c3)c3ccccc3n2)c1` as the molecule, how does the EC50 (cells [1]) read?
**A.** The EC50 was > 350 µM (not active).

**Q.** And the EC50 (cells [2])?
**A.** Its EC50 is > 350 µM (not active).

**Q.** Which results are given for `Cc1cc2c(N=O)c(NO)ccc2[nH]1`?
**A.** IC50 (Large T antigen): 29.3 µM (active); CC50 [6]: 5.53 µM (active)

**Q.** Which EC50 (cells [1]) does the source give for `COc1ccc(NC(=O)Nc2ccc(CC(=O)O)cc2)cc1` here?
**A.** Its EC50 is > 350 µM (not active).

**Q.** And the EC50 (cells [2])?
**A.** The EC50 was 139 µM (active).
